These results are taken from patent US9840513B2 (AbbVie S.à.r.l., priority 2015, dated 2017).

Molecules are shown by their SMILES. pEC50: −log10 of the molar value.

This test addresses T1, F508delCFTR cell surface expression in CFBE41o-F508delCFTR-HRP cells (Homo sapiens, UniProt P13569, DEL508-508).
T1 construct: fused on or other part: Horseradish peroxidase (HRP) reporter inserted in the fourth exofacial (extracellular) loop of CFTR; expression is doxycycline-inducible
The test is described as follows: Cell Surface Expression-Horse Radish Peroxidase (CSE-HRP) Assay. It counts as cell-based. The following applies: for pEC50: CFBE41o-F508delCFTR-HRP cells, 18-24 hours at 33° C., 8-point curve, highest concentration 20 μM; for Maximum % activity (%): maximum at any tested concentration, normalized to on-plate positive control (3 μM). The method, boiled down: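 Correctors incubated 18-24 h at 33 °C on doxycycline-induced (0.5 μg/mL, 72 h) CFBE41o-F508delCFTR-HRP cells, 3-fold series from 20 μM. After DPBS washes, luminol luminescence read; activity expressed relative to DMSO and a 3 μM positive control, EC50 fitted from triplicate plates.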

What is called pEC50 is −log10 of the EC50, conventionally taken in molar units. The low end stands for a high EC50, the high end for a low EC50.

T1 sequence (P13569 with tags, fused parts or gaps DEL508-508 limits assumed): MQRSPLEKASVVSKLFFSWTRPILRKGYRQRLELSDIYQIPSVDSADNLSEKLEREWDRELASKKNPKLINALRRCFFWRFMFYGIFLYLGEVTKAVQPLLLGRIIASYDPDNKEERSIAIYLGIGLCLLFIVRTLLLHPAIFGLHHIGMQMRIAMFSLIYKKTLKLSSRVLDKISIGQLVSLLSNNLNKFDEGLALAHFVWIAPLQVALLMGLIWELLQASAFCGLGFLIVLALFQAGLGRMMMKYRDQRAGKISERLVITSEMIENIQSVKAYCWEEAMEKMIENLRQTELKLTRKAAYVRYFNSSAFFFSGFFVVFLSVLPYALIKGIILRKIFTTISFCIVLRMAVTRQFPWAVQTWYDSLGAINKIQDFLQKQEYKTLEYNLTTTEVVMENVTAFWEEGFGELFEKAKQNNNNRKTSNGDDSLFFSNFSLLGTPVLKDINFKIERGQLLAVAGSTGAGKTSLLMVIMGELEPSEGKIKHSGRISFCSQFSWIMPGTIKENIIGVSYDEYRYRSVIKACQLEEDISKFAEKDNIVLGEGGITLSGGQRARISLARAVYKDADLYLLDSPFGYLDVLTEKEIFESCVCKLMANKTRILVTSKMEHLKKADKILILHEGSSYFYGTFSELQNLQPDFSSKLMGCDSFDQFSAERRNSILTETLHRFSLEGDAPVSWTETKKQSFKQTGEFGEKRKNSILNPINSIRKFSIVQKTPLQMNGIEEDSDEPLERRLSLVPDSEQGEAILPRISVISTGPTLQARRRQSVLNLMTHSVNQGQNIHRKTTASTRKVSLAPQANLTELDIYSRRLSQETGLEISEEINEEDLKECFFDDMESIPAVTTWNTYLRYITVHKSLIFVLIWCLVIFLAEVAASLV
T1 sequence (P13569 919-1480 limits assumed, stated change not applied): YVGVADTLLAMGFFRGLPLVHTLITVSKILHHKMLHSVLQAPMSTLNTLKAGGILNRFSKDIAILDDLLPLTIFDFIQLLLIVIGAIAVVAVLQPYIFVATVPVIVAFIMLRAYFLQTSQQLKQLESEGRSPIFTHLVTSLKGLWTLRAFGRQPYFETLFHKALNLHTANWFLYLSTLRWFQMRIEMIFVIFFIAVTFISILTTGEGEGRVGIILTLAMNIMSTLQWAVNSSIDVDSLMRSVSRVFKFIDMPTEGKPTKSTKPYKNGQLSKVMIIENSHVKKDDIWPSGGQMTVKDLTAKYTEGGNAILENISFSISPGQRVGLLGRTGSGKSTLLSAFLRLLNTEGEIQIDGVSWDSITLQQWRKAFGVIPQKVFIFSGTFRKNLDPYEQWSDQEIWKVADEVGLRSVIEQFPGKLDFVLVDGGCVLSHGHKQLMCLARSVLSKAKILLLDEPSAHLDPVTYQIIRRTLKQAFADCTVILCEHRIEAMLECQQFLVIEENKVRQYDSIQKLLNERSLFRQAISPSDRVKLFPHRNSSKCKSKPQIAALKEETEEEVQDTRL

For `COc1ccc2c(c1)O[C@@H](c1ccc(C(=O)N3CCC(F)(F)CC3)cc1)C[C@H]2NC(=O)[C@@]1(C)COc2cc3c(cc21)OC(F)(F)O3` [Example 223, (7R)—N-{(2R,4R)-2-[4-(4,4-difluoropiperidine-1-carbonyl)phenyl]-7-methoxy-3,4-dihydro-2H-1-benzopyran-4-yl}-2,2-difluoro-7-methyl-6,7-dihydro-2H-furo[2,3-f][1,3]benzodioxole-7-carboxamide], the pEC50 was 7.15 and the “Maximum % activity (%)” value was determined as 157%.

As for `C[C@]1(C(=O)N[C@@H]2C[C@H](C3CCN(C(=O)OCc4ccccc4)CC3)Oc3cc(OC(F)(F)F)ccc32)COc2cc3c(cc21)OC(F)(F)O3` [Example 224, benzyl 4-[(2R,4R)-4-{[(7R)-2,2-difluoro-7-methyl-6,7-dihydro-2H-furo[2,3-f][1,3]benzodioxole-7-carbonyl]amino}-7-(trifluoromethoxy)-3,4-dihydro-2H-1-benzopyran-2-yl]piperidine-1-carboxylate], the negative logarithm of the EC50 (pEC50) is 6.51 and the “Maximum % activity (%)” value amounted to 199%.

In the case of `C[C@]1(C(=O)N[C@H]2C[C@@H](C3CCN(C(=O)OCc4ccccc4)CC3)Oc3cc(OC(F)(F)F)ccc32)COc2cc3c(cc21)OC(F)(F)O3` [Example 225, benzyl 4-[(2S,4S)-4-{[(7R)-2,2-difluoro-7-methyl-6,7-dihydro-2H-furo[2,3-f][1,3]benzodioxole-7-carbonyl]amino}-7-(trifluoromethoxy)-3,4-dihydro-2H-1-benzopyran-2-yl]piperidine-1-carboxylate], the pEC50 was 5.40 and the “Maximum % activity (%)” value is listed as 54%.

With `CC1(C)OC[C@H](CN2CCC([C@@H]3C[C@H](NC(=O)[C@@]4(C)COc5cc6c(cc54)OC(F)(F)O6)c4ccc(OC(F)(F)F)cc4O3)CC2)O1` [Example 226, (7R)—N-[(2S,4S)-2-(1-{[(4S)-2,2-dimethyl-1,3-dioxolan-4-yl]methyl}piperidin-4-yl)-7-(trifluoromethoxy)-3,4-dihydro-2H-1-benzopyran-4-yl]-2,2-difluoro-7-methyl-6,7-dihydro-2H-furo[2,3-f][1,3]benzodioxole-7-carboxamide], the pEC50 is below 4.70 and the “Maximum % activity (%)” value is on record as 18%.

With `COc1ccc2c(c1)O[C@@H](c1ccc(C(=O)NCC(N)=O)cn1)C[C@H]2NC(=O)[C@@]1(C)COc2cc3c(cc21)OC(F)(F)O3` [Example 227, N-(2-amino-2-oxoethyl)-6-[(2R,4R)-4-{[(7R)-2,2-difluoro-7-methyl-6,7-dihydro-2H-furo[2,3-f][1,3]benzodioxole-7-carbonyl]amino}-7-methoxy-3,4-dihydro-2H-1-benzopyran-2-yl]pyridine-3-carboxamide], the pEC50 is 7.15 and the “Maximum % activity (%)” value came out at 113%.

For `COc1ccc2c(c1)O[C@@H](c1ccc(C(=O)NCCCC(N)=O)cn1)C[C@H]2NC(=O)[C@@]1(C)COc2cc3c(cc21)OC(F)(F)O3` [Example 228, N-(4-amino-4-oxobutyl)-6-[(2R,4R)-4-{[(7R)-2,2-difluoro-7-methyl-6,7-dihydro-2H-furo[2,3-f][1,3]benzodioxole-7-carbonyl]amino}-7-methoxy-3,4-dihydro-2H-1-benzopyran-2-yl]pyridine-3-carboxamide], the pEC50 was 7.05 and the “Maximum % activity (%)” value was determined as 108%.

For `COc1ccc2c(c1)O[C@@H](c1ccc(C(=O)NC(C)CC(N)=O)cn1)C[C@H]2NC(=O)[C@@]1(C)COc2cc3c(cc21)OC(F)(F)O3` (stereo partly drawn) [Example 229, N-(4-amino-4-oxobutan-2-yl)-6-[(2R,4R)-4-{[(7R)-2,2-difluoro-7-methyl-6,7-dihydro-2H-furo[2,3-f][1,3]benzodioxole-7-carbonyl]amino}-7-methoxy-3,4-dihydro-2H-1-benzopyran-2-yl]pyridine-3-carboxamide], the pEC50 is 6.96 and the “Maximum % activity (%)” value is 118%.

In the case of `COc1ccc2c(c1)O[C@@H](c1ccc(C(=O)NCCS(C)(=O)=O)cn1)C[C@H]2NC(=O)[C@@]1(C)COc2cc3c(cc21)OC(F)(F)O3` [Example 230, 6-[(2R,4R)-4-{[(7R)-2,2-difluoro-7-methyl-6,7-dihydro-2H-furo[2,3-f][1,3]benzodioxole-7-carbonyl]amino}-7-methoxy-3,4-dihydro-2H-1-benzopyran-2-yl]-N-[2-(methanesulfonyl)ethyl]pyridine-3-carboxamide], the pEC50 is 7.22 and the “Maximum % activity (%)” value stood at 115%.

For `COc1ccc2c(c1)O[C@@H](c1ccc(C(=O)NCC3CNC(=O)C3)cn1)C[C@H]2NC(=O)[C@@]1(C)COc2cc3c(cc21)OC(F)(F)O3` (stereo partly drawn) [Example 231, 6-[(2R,4R)-4-{[(7R)-2,2-difluoro-7-methyl-6,7-dihydro-2H-furo[2,3-f][1,3]benzodioxole-7-carbonyl]amino}-7-methoxy-3,4-dihydro-2H-1-benzopyran-2-yl]-N-[(5-oxopyrrolidin-3-yl)methyl]pyridine-3-carboxamide], the pEC50 was 6.60 and the “Maximum % activity (%)” value is 103%.

As to `COc1ccc2c(c1)O[C@@H](c1ccc(C(=O)NC3CCNC(=O)C3)cn1)C[C@H]2NC(=O)[C@@]1(C)COc2cc3c(cc21)OC(F)(F)O3` (stereo partly drawn) [Example 232, 6-[(2R,4R)-4-{[(7R)-2,2-difluoro-7-methyl-6,7-dihydro-2H-furo[2,3-f][1,3]benzodioxole-7-carbonyl]amino}-7-methoxy-3,4-dihydro-2H-1-benzopyran-2-yl]-N-(2-oxopiperidin-4-yl)pyridine-3-carboxamide], the pEC50 was 6.59 and the “Maximum % activity (%)” value amounted to 117%.

As to `COc1ccc2c(c1)O[C@@H](c1ccc(C(=O)N3CCN(S(N)(=O)=O)CC3)cn1)C[C@H]2NC(=O)[C@@]1(C)COc2cc3c(cc21)OC(F)(F)O3` [Example 233, (7R)-2,2-difluoro-N-{(2R,4R)-7-methoxy-2-[5-(4-sulfamoylpiperazine-1-carbonyl)pyridin-2-yl]-3,4-dihydro-2H-1-benzopyran-4-yl}-7-methyl-6,7-dihydro-2H-furo[2,3-f][1,3]benzodioxole-7-carboxamide], the pEC50 is 7.30 and the “Maximum % activity (%)” value is 112%.

Take `COc1ccc2c(c1)O[C@@H](c1ccc(C(=O)N(C)CCO)cn1)C[C@H]2NC(=O)[C@@]1(C)COc2cc3c(cc21)OC(F)(F)O3` [Example 234, 6-[(2R,4R)-4-{[(7R)-2,2-difluoro-7-methyl-6,7-dihydro-2H-furo[2,3-f][1,3]benzodioxole-7-carbonyl]amino}-7-methoxy-3,4-dihydro-2H-1-benzopyran-2-yl]-N-(2-hydroxyethyl)-N-methylpyridine-3-carboxamide]: the pEC50 was 7.40 and the “Maximum % activity (%)” value was determined as 112%.

`CCN(CCO)C(=O)c1ccc([C@H]2C[C@@H](NC(=O)[C@@]3(C)COc4cc5c(cc43)OC(F)(F)O5)c3ccc(OC)cc3O2)nc1` [Example 235, 6-[(2R,4R)-4-{[(7R)-2,2-difluoro-7-methyl-6,7-dihydro-2H-furo[2,3-f][1,3]benzodioxole-7-carbonyl]amino}-7-methoxy-3,4-dihydro-2H-1-benzopyran-2-yl]-N-ethyl-N-(2-hydroxyethyl)pyridine-3-carboxamide]: the negative logarithm of the EC50 (pEC50) was 7.30 and the “Maximum % activity (%)” value is given as 114%.

Consider `COc1ccc2c(c1)O[C@@H](c1ccc(C(=O)N(CCO)CCO)cn1)C[C@H]2NC(=O)[C@@]1(C)COc2cc3c(cc21)OC(F)(F)O3` [Example 236, 6-[(2R,4R)-4-{[(7R)-2,2-difluoro-7-methyl-6,7-dihydro-2H-furo[2,3-f][1,3]benzodioxole-7-carbonyl]amino}-7-methoxy-3,4-dihydro-2H-1-benzopyran-2-yl]-N,N-bis(2-hydroxyethyl)pyridine-3-carboxamide], for which the negative logarithm of the EC50 (pEC50) was 7.15 and the “Maximum % activity (%)” value worked out at 131%.

For the molecule `COc1ccc2c(c1)O[C@@H](c1ccc(C(=O)N3CCOC(CO)C3)cn1)C[C@H]2NC(=O)[C@@]1(C)COc2cc3c(cc21)OC(F)(F)O3` (stereo partly drawn) [Example 237, (7R)-2,2-difluoro-N-[(2R,4R)-2-{5-[2-(hydroxymethyl)morpholine-4-carbonyl]pyridin-2-yl}-7-methoxy-3,4-dihydro-2H-1-benzopyran-4-yl]-7-methyl-6,7-dihydro-2H-furo[2,3-f][1,3]benzodioxole-7-carboxamide], the pEC50 was 7.30 and the “Maximum % activity (%)” value was determined as 121%.

As for `COc1ccc2c(c1)O[C@@H](c1ccc(C(=O)N3CCC(O)(CCO)C3)cn1)C[C@H]2NC(=O)[C@@]1(C)COc2cc3c(cc21)OC(F)(F)O3` (stereo partly drawn) [Example 238, (7R)-2,2-difluoro-N-[(2R,4R)-2-{5-[3-hydroxy-3-(2-hydroxyethyl)pyrrolidine-1-carbonyl]pyridin-2-yl}-7-methoxy-3,4-dihydro-2H-1-benzopyran-4-yl]-7-methyl-6,7-dihydro-2H-furo[2,3-f][1,3]benzodioxole-7-carboxamide], the pEC50 was 7.10 and the “Maximum % activity (%)” value stood at 113%.

Take `COc1ccc2c(c1)O[C@@H](c1ccc(C(=O)N3CC(O)(CCO)C3)cn1)C[C@H]2NC(=O)[C@@]1(C)COc2cc3c(cc21)OC(F)(F)O3` [Example 239, (7R)-2,2-difluoro-N-[(2R,4R)-2-{5-[3-hydroxy-3-(2-hydroxyethyl)azetidine-1-carbonyl]pyridin-2-yl}-7-methoxy-3,4-dihydro-2H-1-benzopyran-4-yl]-7-methyl-6,7-dihydro-2H-furo[2,3-f][1,3]benzodioxole-7-carboxamide]: the negative logarithm of the EC50 (pEC50) was 7.40 and the “Maximum % activity (%)” value is listed as 111%.
